Key:
[1] = test system: atrophic cutaneous scar; experiment: Topical treatment of an atrophic cutaneous scar in a human (case example); format: in vivo; conditions: aqueous solution 0.004% topical once daily
Protocol: FIG. 1 A. depicts a 6 month old atrophic cutaneous scar secondary to dermatologic surgery present on the abdomen of a person prior to treatment. During the 3 to 4 months prior to starting topical treatment with PGF 2α analog, the scar had not qualitatively changed in structure or appearance. […] The scar was then treated with an aqueous solution of topical travoprost 0.004% which was digitally massaged onto the scar surface once daily for several weeks. FIGS. 1B through J depict the appearance of the same scar at one week intervals during the treatment period.

[2] = test system: skin (Sc)fibroblasts; conditions: exogenous administration; mice with a mutated form of α2AP; cited from earlier work
[3] = test system: synovial fibroblast; conditions: in culture; cited from earlier work

Question: For `CC(C)OC(=O)CCC/C=C\C[C@@H]1[C@@H](/C=C/[C@@H](O)COc2cccc(C(F)(F)F)c2)[C@H](O)C[C@@H]1O` [travoprost], which “Langer lines across the previously scarred skin” value ([1]; at 8 weeks) is on record?
Answer: Its value is “normal appearing Langer lines are apparent”.

Question: What about the “surrounding skin: keloid formation, atrophy or pigmentation” value ([1]; at all time points) of the same compound?
Answer: The value was “no evidence of keloid formation, atrophy or pigmentation”.

Question: And the other adverse reactions ([1]; during or after the treatment interval)?
Answer: The other adverse reactions was “No other adverse reactions were noted”.

Question: What about the “erythema of the scar” value ([1]; over 9 weeks of treatment) of the same compound?
Answer: Its value is “decrease in erythema”.

Question: And the “transition of the border between the scar tissue and normal surrounding skin” value ([1]; over 9 weeks of treatment)?
Answer: Its value is “visibly smoother transition of the border between the scar tissue and normal surrounding skin”.

Question: And the “fibrosis and thickening of the atrophic areas of the scar” value ([1]; person, abdominal scar, over 9 weeks of treatment)?
Answer: The value was “gradual increase in fibrosis and thickening of the atrophic areas of the scar”.

Question: With Prostaglandin F 2α [PGF 2α] as the compound, how does the “bleomycin-induced collagen production / fibrosis in mutant (Sc)fibroblast strain” value [2] read?
Answer: Its value is “reversed the attenuation and this resulted in dermal thickening and fibrosis”.

Question: What about the “synovial fibroblast collagen production, cell proliferation and cell migration” value [3] of the same compound?
Answer: The value was “stimulated”.

Question: For transforming growth factor β, which “synovial fibroblast collagen production, cell proliferation and cell migration” value [3] is on record?
Answer: Its value is “not”.

From patent publication US10039770B2, “Prostaglandin F2Alpha and analogues thereof for treating atrophic cutaneous scarring” (Galderma S.A., priority 2013, dated 2018)
